In the NIST ThermoML archive (doi:10.1021/je100832h):

Columns and labels:
[1] = xn = mol fraction of the nth substance listed; conditions: 328.15 K, 101.32 kPa, Liquid, Vibrating tube method
[2] = excess molar enthalpy (molar enthalpy of mixing); xn = mol fraction of the nth substance listed; conditions: 101 kPa, Liquid, Calvet calorimetry

CCCCCCCCCC [decane] + CCOC(C)=O
[1]
Conditions	mass density [kg/m3]
x2 = 0.4166	737.37
x2 = 0.4853	745.64
x2 = 0.5551	755.09
x2 = 0.6186	764.72
x2 = 0.6774	774.65
x2 = 0.7271	783.92
x2 = 0.7735	793.4
x2 = 0.8619	814.12
x2 = 0.9041	825.66
x2 = 0.9511	840.13

[2]
Conditions	excess molar enthalpy [kcal/mol]
291.15 K, x2 = 0.0986	0.146
291.15 K, x2 = 0.1909	0.246
291.15 K, x2 = 0.2646	0.318
291.15 K, x2 = 0.3377	0.372
291.15 K, x2 = 0.4032	0.404
291.15 K, x2 = 0.4608	0.422
291.15 K, x2 = 0.5067	0.429
291.15 K, x2 = 0.5523	0.433
291.15 K, x2 = 0.5924	0.428
291.15 K, x2 = 0.6147	0.421
291.15 K, x2 = 0.6541	0.409
291.15 K, x2 = 0.7009	0.389
291.15 K, x2 = 0.7512	0.357
291.15 K, x2 = 0.7956	0.317
291.15 K, x2 = 0.8448	0.268
291.15 K, x2 = 0.8927	0.208
291.15 K, x2 = 0.9375	0.14
291.15 K, x2 = 0.9684	0.0715
298.15 K, x2 = 0.0884	0.119
298.15 K, x2 = 0.177	0.216
298.15 K, x2 = 0.2587	0.289
298.15 K, x2 = 0.3362	0.345
298.15 K, x2 = 0.4005	0.377
298.15 K, x2 = 0.4566	0.398
298.15 K, x2 = 0.5101	0.408
298.15 K, x2 = 0.5578	0.408
298.15 K, x2 = 0.5984	0.402
298.15 K, x2 = 0.6297	0.395
298.15 K, x2 = 0.6727	0.381
298.15 K, x2 = 0.7191	0.357
298.15 K, x2 = 0.7636	0.329
298.15 K, x2 = 0.8098	0.289
298.15 K, x2 = 0.8591	0.24
298.15 K, x2 = 0.9024	0.185
298.15 K, x2 = 0.9385	0.124
298.15 K, x2 = 0.9744	0.0595
318.15 K, x2 = 0.0892	0.136
318.15 K, x2 = 0.172	0.226
318.15 K, x2 = 0.2474	0.3
318.15 K, x2 = 0.3208	0.354
318.15 K, x2 = 0.3848	0.388
318.15 K, x2 = 0.4412	0.409
318.15 K, x2 = 0.4941	0.42
318.15 K, x2 = 0.5409	0.421
318.15 K, x2 = 0.5801	0.417
318.15 K, x2 = 0.5985	0.412
318.15 K, x2 = 0.6567	0.391
318.15 K, x2 = 0.6942	0.374
318.15 K, x2 = 0.7429	0.344
318.15 K, x2 = 0.7959	0.303
318.15 K, x2 = 0.8499	0.249
318.15 K, x2 = 0.9018	0.179
318.15 K, x2 = 0.9554	0.0973
